Our source for the IC50 values is PubChem BioAssay AID651581 (Sanford-Burnham Center for Chemical Genomics, 2012).

Active and inactive are the calls of the source. How the calls were made is not given here.

In test [1] the target is Endothelial PAS domain-containing protein 1 (Homo sapiens) (UniProt Q99814). Briefly: HIF-2a and HIF-1a reporter inhibition panel, dose response, selectivity assay for HIF-2a inhibitor project, cell-based, luminescence (AID 651581).
In test [2] the target is Hypoxia-inducible factor 1-alpha (Homo sapiens) (UniProt Q16665). The test is described as above. To be noted: HIF-1a.
Hypoxia-inducible factor 1-alpha (Homo sapiens), sequence (Q16665 whole entry, looked up): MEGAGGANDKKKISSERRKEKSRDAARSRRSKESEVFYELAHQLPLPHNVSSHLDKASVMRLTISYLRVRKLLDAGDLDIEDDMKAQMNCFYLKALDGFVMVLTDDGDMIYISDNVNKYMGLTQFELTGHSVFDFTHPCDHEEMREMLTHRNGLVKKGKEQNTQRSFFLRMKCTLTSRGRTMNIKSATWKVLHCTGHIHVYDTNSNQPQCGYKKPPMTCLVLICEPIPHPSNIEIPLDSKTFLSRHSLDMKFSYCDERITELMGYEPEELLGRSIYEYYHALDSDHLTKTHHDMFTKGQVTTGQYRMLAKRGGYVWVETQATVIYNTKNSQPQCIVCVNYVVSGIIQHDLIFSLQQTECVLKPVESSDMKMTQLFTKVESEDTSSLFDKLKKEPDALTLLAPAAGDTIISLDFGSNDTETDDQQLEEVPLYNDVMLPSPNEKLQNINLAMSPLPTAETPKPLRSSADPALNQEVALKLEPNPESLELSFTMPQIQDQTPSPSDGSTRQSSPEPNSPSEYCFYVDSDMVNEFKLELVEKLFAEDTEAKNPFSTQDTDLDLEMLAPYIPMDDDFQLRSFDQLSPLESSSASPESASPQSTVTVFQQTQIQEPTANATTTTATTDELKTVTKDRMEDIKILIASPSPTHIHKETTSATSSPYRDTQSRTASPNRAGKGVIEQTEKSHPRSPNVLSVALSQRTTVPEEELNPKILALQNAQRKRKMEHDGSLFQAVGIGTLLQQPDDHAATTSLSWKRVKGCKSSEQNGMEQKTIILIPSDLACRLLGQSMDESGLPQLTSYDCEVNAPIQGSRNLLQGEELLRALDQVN

On to `CCS(=O)(=O)c1ncc(Cl)c(C(=O)Nc2ccc(C)cc2)n1`, for which the IC50 (in general, the point on the concentration scale where inhibition reaches its midpoint) in test [1] (HIF-2a PANC, mean of runs) is 30.5 µM; in test [1] (HIF-2a PANC, run 1) it was 30.4 µM; in test [1] (HIF-2a PANC, run 2), 30.7 µM; in test [1] (HIF-2a, run 1) it was 10.8 µM; in test [1] (HIF-2a, run 2), 9.79 µM; in test [2] (run 1) it was 23.9 µM. For the same molecule, the IC50 in test [2] (run 2) turned out to be 20 µM. For the same molecule, the IC50 result is “inactive” in test [1] (HIF-2a, mean of runs) and “inactive” in test [2] (mean of runs).

`Cc1ccc(/C=N/Nc2cccc(C(=O)O)c2)s1`: the IC50 in test [1] (HIF-2a PANC, run 1) is more than 99 µM; in test [1] (HIF-2a PANC, run 2), more than 99 µM; in test [1] (HIF-2a, run 1) it was less than 30 µM; in test [1] (HIF-2a, run 2), more than 99 µM; in test [2] (mean of runs) it was > 99 µM (inactive); in test [2] (run 1) it was more than 99 µM. The molecule also yielded an IC50 in test [2] (run 2) of more than 99 µM.

`CC(=O)Nc1ccc(OS(=O)(=O)c2ccc(C)cc2C)cc1`: the IC50 in test [1] (HIF-2a PANC, mean of runs) is 7.66 µM; in test [1] (HIF-2a PANC, run 1), 5.49 µM; in test [1] (HIF-2a PANC, run 2), 9.84 µM; in test [1] (HIF-2a, mean of runs), 3.79 µM; in test [1] (HIF-2a, run 1) it was 3.7 µM; in test [1] (HIF-2a, run 2) it was 3.87 µM. For the same molecule, the results for the IC50 in test [2] (mean of runs), in test [2] (run 1) and in test [2] (run 2) were 24.9 µM, 28.2 µM and 21.6 µM, respectively.

On to `Nc1ccc(-c2nnn(CC(=O)N3CCCCC3)n2)cc1`, for which the IC50 is more than 99 µM in test [1] (HIF-2a PANC, run 1); 33.3 µM in test [1] (HIF-2a PANC, run 2); 18.3 µM in test [1] (HIF-2a, run 1); 17 µM in test [1] (HIF-2a, run 2); 15.7 µM in test [2] (run 1); more than 99 µM in test [2] (run 2). Further, the IC50 entry in test [1] (HIF-2a, mean of runs) is “inactive”.

For `N#Cc1c(NC(=O)CSc2ncn[nH]2)sc2c1CCCCC2`, the IC50 in test [1] (HIF-2a PANC, mean of runs) was less than 0.19 µM; in test [1] (HIF-2a PANC, run 1), less than 0.19 µM; in test [1] (HIF-2a PANC, run 2), less than 10 µM; in test [1] (HIF-2a, mean of runs), less than 0.3 µM; in test [1] (HIF-2a, run 1), less than 0.3 µM; in test [1] (HIF-2a, run 2) it was less than 0.3 µM. In addition, the IC50 in test [2] (run 1) was more than 99 µM; in test [2] (run 2), 1.47 µM.

In the case of `COC(=O)c1ccc(C(=O)OC)c(-n2c(=O)c3ccccc3c3ccccc3c2=O)c1`, the IC50 in test [1] (HIF-2a PANC, mean of runs) is > 99 µM (inactive); in test [1] (HIF-2a PANC, run 1), more than 99 µM; in test [1] (HIF-2a PANC, run 2), more than 99 µM; in test [1] (HIF-2a, run 1), 25.7 µM; in test [1] (HIF-2a, run 2), 25.2 µM; in test [2] (run 1) it was 38.2 µM. Moreover, in test [2] (run 2), the IC50 is 42.4 µM. In addition, the IC50 result in test [1] (HIF-2a, mean of runs) is “inactive”; in test [2] (mean of runs) it was “inactive”.

In the case of `CCNC(=O)NC(=O)COC(=O)CCCSc1nc2ccccc2s1`, the IC50 was 12.1 µM in test [1] (HIF-2a PANC, mean of runs); 10.8 µM in test [1] (HIF-2a PANC, run 1); 13.4 µM in test [1] (HIF-2a PANC, run 2); 5.05 µM in test [1] (HIF-2a, mean of runs); 5.08 µM in test [1] (HIF-2a, run 1); 5.02 µM in test [1] (HIF-2a, run 2). Moreover, the results for the IC50 in test [2] (mean of runs), in test [2] (run 1) and in test [2] (run 2) were 17.9 µM, 28.3 µM and 7.51 µM, respectively.

For the molecule `Cc1c(CCC(=O)N2CCC[C@H]2C(=O)O)c(=O)oc2c(C)c3oc4c(c3cc12)CCCC4`, the IC50 in test [1] (HIF-2a PANC, mean of runs) was 1.72 µM; in test [1] (HIF-2a PANC, run 1), 1.8 µM; in test [1] (HIF-2a PANC, run 2), 1.64 µM; in test [1] (HIF-2a, mean of runs), 4.13 µM; in test [1] (HIF-2a, run 1), 4.63 µM; in test [1] (HIF-2a, run 2), 3.63 µM. The IC50 in test [2] (mean of runs) was 44.7 µM; in test [2] (run 1), 72.4 µM; in test [2] (run 2), 17 µM.

As to `N#Cc1ccccc1COc1ccc(/C=C/C(=O)O)cc1`, the IC50 in test [1] (HIF-2a PANC, mean of runs) was 0.92 µM; in test [1] (HIF-2a PANC, run 1) it was 1.53 µM; in test [1] (HIF-2a PANC, run 2), 0.311 µM; in test [1] (HIF-2a, mean of runs), 0.391 µM; in test [1] (HIF-2a, run 1), 0.37 µM; in test [1] (HIF-2a, run 2) it was 0.412 µM. In addition, the figures for the IC50 in test [2] (mean of runs), in test [2] (run 1) and in test [2] (run 2) were 1.34 µM, 1.56 µM and 1.12 µM, respectively.

As to `O=C(O)c1ccc(N/N=C/c2ccc3ncccc3c2)cc1`, the IC50 in test [1] (HIF-2a PANC, run 1) is more than 99 µM; in test [1] (HIF-2a PANC, run 2) it was 19.3 µM; in test [1] (HIF-2a, run 1), less than 30 µM; in test [1] (HIF-2a, run 2), more than 99 µM; in test [2] (run 1), 18.8 µM; in test [2] (run 2), 16.8 µM. For the same molecule, in test [2] (mean of runs), the IC50 entry was “inactive”.

`COc1ccc(/C=N\n2nnc3ccccc32)cc1`: the IC50 was 7.03 µM in test [1] (HIF-2a PANC, mean of runs); 7.48 µM in test [1] (HIF-2a PANC, run 1); 6.58 µM in test [1] (HIF-2a PANC, run 2); < 30 µM (inactive) in test [1] (HIF-2a, mean of runs); less than 30 µM in test [1] (HIF-2a, run 1); less than 30 µM in test [1] (HIF-2a, run 2). Moreover, the IC50 in test [2] (mean of runs) was < 30 µM (inactive); in test [2] (run 1) it was less than 30 µM; in test [2] (run 2), less than 30 µM.

Take `CCOc1ccc(C(=O)Nc2cccc(C(=O)O)c2C)cc1Cl`: the IC50 in test [1] (HIF-2a PANC, mean of runs) was 28.2 µM; in test [1] (HIF-2a PANC, run 1), 25 µM; in test [1] (HIF-2a PANC, run 2), 31.5 µM; in test [1] (HIF-2a, run 1) it was 13.3 µM; in test [1] (HIF-2a, run 2) it was 16.6 µM; in test [2] (run 1) it was more than 30 µM. The IC50 in test [2] (run 2) is more than 99 µM. The IC50 entry in test [1] (HIF-2a, mean of runs) is “inactive”.

Turning to `COc1cc(OC)cc(-c2nnc(Nc3nc4c(F)cccc4s3)o2)c1`, the IC50 in test [1] (HIF-2a PANC, mean of runs) was 6.26 µM; in test [1] (HIF-2a PANC, run 1), 7.31 µM; in test [1] (HIF-2a PANC, run 2), 5.21 µM; in test [1] (HIF-2a, mean of runs), 3.15 µM; in test [1] (HIF-2a, run 1), 4.09 µM; in test [1] (HIF-2a, run 2) it was 2.2 µM. Also, the IC50 in test [2] (run 1) and in test [2] (run 2) was more than 99 µM throughout.
